We go through 22 molecules from US7371762B2, “3-substituted 6,7-dihydroxytetrahydroisoquinoline derivatives for use as antibacterial agents” (Arpida AG, priority 2001, dated 2008).

Values after ≈ are worked out from the molar mass of the structure shown.

Common to all, as to assay: Minimal inhibitory concentration (MIC), NCCLS M7-A5 procedure
What all share (assay type): cell-based

Assay [1] deals with Escherichia coli ATCC25922. The following applies: read-out: Minimal inhibitory concentration (MIC) EC 25922. The protocol: (§1) Minimal inhibitory concentrations (MIC) were determined in accordance with the National Committee for Clinical Laboratory Standards (NCCLS) procedure [M7-A5, 2001].
(§2) The results obtained are summarized in table 1 and are expressed in jig/ml. In this table 1, EC 25922 means Escherichia coli ATCC25922, EC DC2 means Escherichia coli DC2, SA 25923 means Staphylococcus aureus ATCC25923 and SA 101 means Staphylococcus aureus 101. (ATCC=American Type Culture Collection)
(§3) M7-A5* (2001): Methods for Dilution Antimicrobial Susceptibility Tests for Bacteria that Grow Aerobically; Approved Standard—Fifth Edition American National Standard.

For assay [2], the system named is Escherichia coli DC2. The following applies: read-out: Minimal inhibitory concentration (MIC) EC DC2. Here is the method: as §1, §2, §3
Assay [3] concerns Staphylococcus aureus 101. Conditions: read-out: Minimal inhibitory concentration (MIC) SA 101. The protocol: as §1, §2, §3
Assay [4] relates to Staphylococcus aureus ATCC25923. Conditions: read-out: Minimal inhibitory concentration (MIC) SA 25923. The protocol:
as §1, §2, §3

Turning to `Oc1cc2c(cc1O)CC(c1ccc(Oc3ccccc3)cc1)NC2` (stereo not shown) [Example 1, 3-(4-Phenoxy-phenyl)-1,2,3,4-tetrahydro-isoquinoline-6,7-diol], the MIC in assay [1] amounted to 32 µg/mL (≈ 96 µM); in assay [2], 8 µg/mL (≈ 24 µM); in assay [3], 8 µg/mL (≈ 24 µM); in assay [4], 8 µg/mL (≈ 24 µM).
In the case of `Oc1cc2c(cc1O)CN(Cc1ccccc1)C(c1ccc(Oc3ccccc3)cc1)C2` (stereo not shown) [Example 2, 2-Benzyl-3-(4-phenoxy-phenyl)-1,2,3,4-tetrahydro-isoquinoline-6,7-diol], the MIC was above 128 µg/mL in assay [1], 64 µg/mL (≈ 151 µM) in assay [2], 32 µg/mL (≈ 75.6 µM) in assay [3] and 64 µg/mL (≈ 151 µM) in assay [4].
Take `CC1NC(c2ccc(Oc3ccccc3)cc2)Cc2cc(O)c(O)cc21` (stereo not shown) [Example 3, 1-Methyl-3-(4-phenoxy-phenyl)-1,2,3,4-tetrahydro-isoquinoline-6,7-diol]: the MIC was found to be 32 µg/mL (≈ 92.1 µM) in assay [2] and 16 µg/mL (≈ 46.1 µM) in assay [4].
With `COc1ccc(C2Cc3cc(O)c(O)cc3CN2)c2ccccc12` (stereo not shown) [Example 4, 3-(4-Methoxy-naphthalen-1-yl)-1,2,3,4-tetrahydro-isoquinoline-6,7-diol], the MIC in assay [2] and in assay [4] was 32 µg/mL (≈ 99.6 µM) in each case.
As for `Oc1cc2c(cc1O)CC(c1ccc(O)c3ccccc13)NC2` (stereo not shown) [Example 5, 3-(4-Hydroxy-naphthalen-1-yl)-1,2,3,4-tetrahydro-isoquinoline-6,7-diol], the MIC in assay [2] stood at 16 µg/mL (≈ 52.1 µM); in assay [4] it was 32 µg/mL (≈ 104 µM).
On to `OCC1Cc2cc(O)c(O)cc2CN1` (stereo not shown) [Example 6, 3-Hydroxymethyl-1,2,3,4-tetrahydro-isoquinoline-6,7-diol], for which the MIC in assay [1] was 64 µg/mL (≈ 328 µM); in assay [2], 32 µg/mL (≈ 164 µM); in assay [3], 16 µg/mL (≈ 82 µM); in assay [4] it was 16 µg/mL (≈ 82 µM).
On to `Oc1cc2c(cc1O)CC(c1ccc3oc4ccccc4c3c1)NC2` (stereo not shown) [Example 7, 3-Dibenzofuran-2-yl-1,2,3,4-tetrahydro-isoquinoline-6,7-diol], for which the MIC stood at 64 µg/mL (≈ 193 µM) in assay [1], 32 µg/mL (≈ 96.6 µM) in assay [2], 16 µg/mL (≈ 48.3 µM) in assay [3] and 8 µg/mL (≈ 24.1 µM) in assay [4].
The like results for `Oc1cc2c(cc1O)CC(c1ccc(Sc3ccccc3)cc1)NC2` (stereo not shown) [Example 8, 3-(4-Phenylsulfanyl-phenyl)-1,2,3,4-tetrahydro-isoquinoline-6,7-diol] were, in that order, 64 µg/mL (≈ 183 µM), 32 µg/mL (≈ 91.6 µM), 32 µg/mL (≈ 91.6 µM) and 8 µg/mL (≈ 22.9 µM).
Taken in the same sequence, the figures for `Oc1cc2c(cc1O)CC(c1ccc(Cl)cc1Cl)NC2` (stereo not shown) [Example 9, 3-(2,4-Dichloro-phenyl)-1,2,3,4-tetrahydro-isoquinoline-6,7-diol] were 128 µg/mL (≈ 413 µM), 64 µg/mL (≈ 206 µM), 64 µg/mL (≈ 206 µM) and 64 µg/mL (≈ 206 µM).
The like results for `Oc1cc2c(cc1O)CC(COc1ccc(Cl)cc1Cl)NC2` (stereo not shown) [Example 10, 3-(2,4-Dichloro-phenoxymethyl)-1,2,3,4-tetrahydro-isoquinoline-6,7-diol] were, in that order, 128 µg/mL (≈ 376 µM), 2 µg/mL (≈ 5.88 µM), 16 µg/mL (≈ 47 µM) and 8 µg/mL (≈ 23.5 µM).
For `Oc1cc2c(cc1O)CN(Cc1ccccc1)C(COc1ccc(Cl)cc1Cl)C2` (stereo not shown) [Example 11, 2-Benzyl-3-(2,4-dichloro-phenoxymethyl)-1,2,3,4-tetrahydro-isoquinoline-6,7-diol], the MIC was above 128 µg/mL in assay [1], above 128 µg/mL in assay [2], 8 µg/mL (≈ 18.6 µM) in assay [3] and 8 µg/mL (≈ 18.6 µM) in assay [4].
In the case of `Oc1cc2c(cc1O)CC(c1ccc(-c3ccccc3)cc1)NC2` (stereo not shown) [Example 12, 3-Biphenyl-4-yl-1,2,3,4-tetrahydro-isoquinoline-6,7-diol], the MIC was found to be 16 µg/mL (≈ 50.4 µM) in assay [1], 8 µg/mL (≈ 25.2 µM) in assay [2], 16 µg/mL (≈ 50.4 µM) in assay [3] and 4 µg/mL (≈ 12.6 µM) in assay [4].
As for `Oc1cc2c(cc1O)CC(COc1ccc(Cl)c(Cl)c1)NC2` (stereo not shown) [Example 13, 3-(3,4-Dichloro-phenoxymethyl)-1,2,3,4-tetrahydro-isoquinoline-6,7-diol], the MIC in assay [1] is above 128 µg/mL; in assay [2], 16 µg/mL (≈ 47 µM); in assay [3], 16 µg/mL (≈ 47 µM); in assay [4] it was 16 µg/mL (≈ 47 µM).
In the case of `Oc1cc2c(cc1O)CC(COc1cc(Cl)ccc1Cl)NC2` (stereo not shown) [Example 14, 3-(2,5-Dichloro-phenoxymethyl)-1,2,3,4-tetrahydro-isoquinoline-6,7-diol], the MIC came out at 128 µg/mL (≈ 376 µM) in assay [1], 32 µg/mL (≈ 94.1 µM) in assay [2], 64 µg/mL (≈ 188 µM) in assay [3] and 64 µg/mL (≈ 188 µM) in assay [4].
With `Oc1cc2c(cc1O)CC(c1ccc(Cl)cc1)NC2` (stereo not shown) [Example 15, 3-(4-Chloro-phenyl)-1,2,3,4-tetrahydro-isoquinoline-6,7-diol], the MIC was found to be 128 µg/mL (≈ 464 µM) in assay [1], 32 µg/mL (≈ 116 µM) in assay [2], 32 µg/mL (≈ 116 µM) in assay [3] and 16 µg/mL (≈ 58 µM) in assay [4].
`Oc1cc2c(cc1O)CC(c1ccc(Br)cc1)NC2` (stereo not shown) [Example 16, 3-(4-Bromo-phenyl)-1,2,3,4-tetrahydro-isoquinoline-6,7-diol]: the MIC in assay [1] is above 128 µg/mL; in assay [2], 32 µg/mL (≈ 99.9 µM); in assay [3] it was 64 µg/mL (≈ 200 µM); in assay [4] it was 8 µg/mL (≈ 25 µM).
Taken in the same sequence, the figures for `Oc1cc2c(cc1O)CC(c1ccc(-c3ccc(C(F)(F)F)cc3)cc1)NC2` (stereo not shown) [Example 17, 3-(4′-Trifluoromethyl-biphenyl-4-yl)-1,2,3,4-tetrahydro-isoquinoline-6,7-diol] were 64 µg/mL (≈ 166 µM), 8 µg/mL (≈ 20.8 µM), 8 µg/mL (≈ 20.8 µM) and 4 µg/mL (≈ 10.4 µM).
Regarding `CN(C)c1ccc(-c2ccc(C3Cc4cc(O)c(O)cc4CN3)cc2)cc1` (stereo not shown) [Example 18, 3-(4′-Dimethylamino-biphenyl-4-yl)-1,2,3,4-tetrahydro-isoquinoline-6,7-diol], the MIC in assay [1] was above 128 µg/mL; in assay [2], 8 µg/mL (≈ 22.2 µM); in assay [3], 16 µg/mL (≈ 44.4 µM); in assay [4], 4 µg/mL (≈ 11.1 µM).
Consider `Oc1ccc(-c2ccc(C3Cc4cc(O)c(O)cc4CN3)cc2)cc1` (stereo not shown) [Example 19, 3-(4′-Hydroxy-biphenyl-4-yl)-1,2,3,4-tetrahydro-isoquinoline-6,7-diol], for which the MIC was above 128 µg/mL in assay [1], 64 µg/mL (≈ 192 µM) in assay [2], 128 µg/mL (≈ 384 µM) in assay [3] and 128 µg/mL (≈ 384 µM) in assay [4].
Turning to `Oc1cc2c(cc1O)CC(c1ccc(-c3ccccc3O)cc1)NC2` (stereo not shown) [Example 20, 3-(2′-Hydroxy-biphenyl-4-yl)-1,2,3,4-tetrahydro-isoquinoline-6,7-diol], the MIC in assay [1] worked out at 128 µg/mL (≈ 384 µM); in assay [2], 32 µg/mL (≈ 96 µM); in assay [3], 32 µg/mL (≈ 96 µM); in assay [4], 16 µg/mL (≈ 48 µM).
Consider `Oc1cc2c(cc1O)CC(c1ccc(-c3ccc(F)cc3F)cc1)NC2` (stereo not shown) [Example 21, 3-(2′,4′-Difluoro-biphenyl-4-yl)-1,2,3,4-tetrahydro-isoquinoline-6,7-diol], for which the MIC in assay [1] is 32 µg/mL (≈ 90.6 µM); in assay [2], 8 µg/mL (≈ 22.6 µM); in assay [3], 8 µg/mL (≈ 22.6 µM); in assay [4], 8 µg/mL (≈ 22.6 µM).
For the molecule `N#Cc1cccc(-c2ccc(C3Cc4cc(O)c(O)cc4CN3)cc2)c1` (stereo not shown) [Example 22, 4′-(6,7-Dihydroxy-1,2,3,4-tetrahydro-isoquinolin-3-yl)-biphenyl-3-carbonitrile], the MIC in assay [1] is above 128 µg/mL; in assay [2], 64 µg/mL (≈ 187 µM); in assay [3], above 128 µg/mL; in assay [4], 128 µg/mL (≈ 374 µM).
